According to ChEMBL document CHEMBL1201862, “PubChem BioAssay data set” (2004):
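Exposure lasted 48 hours, with cells grown in 96-well plates and compounds tested at five concentrations. GI50 marks 50% less growth.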 The source made the active and inactive calls. No stated cut-off is given here; in the data, active = GI50 up to about 1.1 µM and inactive = higher. Residues, ends and D or L forms follow the SMILES beside them. *: point of attachment. Cbz = O=C(OCc1ccccc1)*

Experiments:
Assay in all cases: DTP human tumour cell line panel, 48 h
RPMI-8226 = system: RPMI-8226
HOP-92 = system: HOP-92
MDA-N = system: MDA-N
HT-29 = system: HT-29
UACC-62 = system: UACC-62
Hs-578T = system: Hs-578T
NCI-H226 = system: NCI-H226
SK-OV-3 = system: SK-OV-3
COLO 205 = system: COLO 205
ACHN = system: ACHN
SF-539 = system: SF-539
HCC 2998 = system: HCC 2998
TK-10 = system: TK-10
HCT-15 = system: HCT-15
NCI-H23 = system: NCI-H23
SR = system: SR
Malme-3M = system: Malme-3M
MOLT-4 = system: MOLT-4
U-251 = system: U-251

Row | Structure (SMILES) | GI50 (RPMI-8226) | GI50 (HOP-92) | GI50 (MDA-N) | GI50 (HT-29) | GI50 (UACC-62) | GI50 (Hs-578T) | GI50 (NCI-H226) | GI50 (SK-OV-3) | GI50 (COLO 205) | GI50 (ACHN) | GI50 (SF-539) | GI50 (HCC 2998) | GI50 (TK-10) | GI50 (HCT-15) | GI50 (NCI-H23) | GI50 (SR) | GI50 (Malme-3M) | GI50 (MOLT-4) | GI50 (U-251)
1 | Cc1ccc(C(CCO)CCO)nc1 | > 100 µM (inactive) | > 100 µM (inactive) | > 100 µM (inactive) | > 100 µM (inactive) | > 100 µM (inactive) | > 100 µM (inactive) | > 100 µM (inactive) | > 100 µM (inactive) | > 100 µM (inactive) | > 100 µM (inactive) | > 100 µM (inactive) | > 100 µM (inactive) | > 100 µM (inactive) | > 100 µM | > 100 µM (inactive) | > 100 µM (inactive) | > 100 µM (inactive) | > 100 µM (inactive) | > 100 µM (inactive)
2 | O=c1[nH]c2ccccc2c2oc(-c3ccccc3)nc12 | 27.9 µM (inactive) | 28.5 µM (inactive) | 20.2 µM (inactive) | > 100 µM (inactive) | 88.3 µM (inactive) | 25.1 µM (inactive) | 88.9 µM (inactive) | 37.2 µM (inactive) | 18.6 µM (inactive) | > 100 µM (inactive) | 16.7 µM (inactive) | > 100 µM (inactive) | 54.6 µM (inactive) | > 100 µM | 65.8 µM (inactive) | 15.9 µM (inactive) | > 100 µM (inactive) | 26.6 µM (inactive) | 24.7 µM (inactive)
3 | CN(C)CCCNc1ccnc2cccc([N+](=O)[O-])c12 | 27.3 µM (inactive) | 10.6 µM (inactive) | 17.2 µM (inactive) | 12.1 µM (inactive) | – | 26 µM (inactive) | 15.3 µM (inactive) | 2.52 µM (inactive) | 3.73 µM (inactive) | 5 µM (inactive) | 15.2 µM (inactive) | 13.3 µM (inactive) | 15.7 µM (inactive) | 8.41 µM | 5.9 µM (inactive) | > 100 µM (inactive) | 8.18 µM (inactive) | > 100 µM (inactive) | 15.7 µM (inactive)
4 | O=C1c2cc([N+](=O)[O-])ccc2-c2cccc(F)c21 | 64.1 µM (inactive) | > 100 µM (inactive) | 72.3 µM (inactive) | > 100 µM (inactive) | 56.1 µM (inactive) | 52.1 µM (inactive) | 96.4 µM (inactive) | > 100 µM (inactive) | > 100 µM (inactive) | > 100 µM (inactive) | 40.2 µM (inactive) | 80.2 µM (inactive) | > 100 µM (inactive) | 37.1 µM | > 100 µM (inactive) | 30.3 µM (inactive) | – | 42.3 µM (inactive) | 90.4 µM (inactive)
5 | COc1cc2ncnc(NS(=O)(=O)c3cc4ccccc4s3)c2cc1OC | 58.3 µM (inactive) | 34 µM (inactive) | > 100 µM (inactive) | > 100 µM (inactive) | 89.1 µM (inactive) | 49.9 µM (inactive) | > 100 µM (inactive) | > 100 µM (inactive) | > 100 µM (inactive) | > 100 µM (inactive) | > 100 µM (inactive) | > 100 µM (inactive) | > 100 µM (inactive) | > 100 µM | 93.1 µM (inactive) | > 100 µM (inactive) | > 100 µM (inactive) | > 100 µM (inactive) | > 100 µM (inactive)
6 | N#CC1=C(N)OC2=C(CCCc3ccc([N+](=O)[O-])cc32)C1c1ccccc1 (configuration not stated) | 2.9 µM (inactive) | 6.46 µM (inactive) | 2.09 µM (inactive) | 3.44 µM (inactive) | 1.98 µM (inactive) | 15.9 µM (inactive) | 8.3 µM (inactive) | 8.07 µM (inactive) | 3.69 µM (inactive) | 10.8 µM (inactive) | 3.17 µM (inactive) | 2.18 µM (inactive) | 12.4 µM (inactive) | 2.45 µM | 4.97 µM (inactive) | 2.36 µM (inactive) | 7.45 µM (inactive) | 3.69 µM (inactive) | 4.71 µM (inactive)
7 | Cc1nc(C(N)=S)sc1C(=O)CC(=O)C(=O)Nc1cccc(Cl)c1C | > 100 µM (inactive) | > 100 µM (inactive) | > 100 µM (inactive) | > 100 µM (inactive) | > 100 µM (inactive) | > 100 µM (inactive) | > 100 µM (inactive) | > 100 µM (inactive) | – | > 100 µM (inactive) | > 100 µM (inactive) | > 100 µM (inactive) | > 100 µM (inactive) | > 100 µM | > 100 µM (inactive) | > 100 µM (inactive) | > 100 µM (inactive) | > 100 µM (inactive) | > 100 µM (inactive)
8 | O=[N+]([O-])c1ccc(-n2nc3ccc4nonc4c3n2)cc1 | > 100 µM (inactive) | 19.6 µM (inactive) | > 100 µM (inactive) | > 100 µM (inactive) | 32.5 µM (inactive) | 13.3 µM (inactive) | 17.8 µM (inactive) | 20 µM (inactive) | > 100 µM (inactive) | 41.3 µM (inactive) | 44.8 µM (inactive) | 97.3 µM (inactive) | 18.4 µM (inactive) | > 100 µM | 23.7 µM (inactive) | > 100 µM (inactive) | 24.2 µM (inactive) | > 100 µM (inactive) | 77.1 µM (inactive)
9 | CN1C=COC1N=C1CCCCC1 (configuration not stated) | > 100 µM (inactive) | 75.7 µM (inactive) | > 100 µM (inactive) | > 100 µM (inactive) | > 100 µM (inactive) | > 100 µM (inactive) | > 100 µM (inactive) | > 100 µM (inactive) | > 100 µM (inactive) | > 100 µM (inactive) | > 100 µM (inactive) | > 100 µM (inactive) | > 100 µM (inactive) | > 100 µM | > 100 µM (inactive) | > 100 µM (inactive) | > 100 µM (inactive) | > 100 µM (inactive) | > 100 µM (inactive)
10 | COc1cc(CCNC2=CC(=O)c3cccnc3C2=O)ccc1O | 1.92 µM (inactive) | 5.48 µM (inactive) | 0.167 µM (active) | 1.97 µM (inactive) | 0.957 µM (active) | 0.849 µM (active) | 1.84 µM (inactive) | 2.52 µM (inactive) | 1.6 µM (inactive) | 1.31 µM (inactive) | 1.59 µM (inactive) | 1.73 µM (inactive) | 7.96 µM (inactive) | 1.18 µM | 0.809 µM (active) | 1.87 µM (inactive) | 1.1 µM (active) | 4.09 µM (inactive) | 0.766 µM (active)
11 | CC1(C)OC(=S)N(c2ccccc2)C12C=Cc1ccccc1O2 (configuration not stated) | 24.8 µM (inactive) | 88.3 µM (inactive) | 39.5 µM (inactive) | 56.6 µM (inactive) | 75.5 µM (inactive) | > 100 µM (inactive) | 85.3 µM (inactive) | 16.6 µM (inactive) | 63.4 µM (inactive) | > 100 µM (inactive) | – | > 100 µM (inactive) | > 100 µM (inactive) | 58.9 µM | 41 µM (inactive) | 4.26 µM (inactive) | – | 22.5 µM (inactive) | > 100 µM (inactive)
12 | O=[N+]([O-])c1ccc(Sc2c3ccccc3nc3ccccc23)nc1 | 2.21 µM (inactive) | 1.95 µM (inactive) | 5.12 µM (inactive) | 3.06 µM (inactive) | 15.3 µM (inactive) | 19.4 µM (inactive) | 16.3 µM (inactive) | 13.2 µM (inactive) | 2.37 µM (inactive) | 7.87 µM (inactive) | 16.7 µM (inactive) | 15.7 µM (inactive) | 2.96 µM (inactive) | 4 µM | 6.84 µM (inactive) | 2.47 µM (inactive) | 2.11 µM (inactive) | 2.75 µM (inactive) | 24.3 µM (inactive)
13 | Fc1ccccc1-c1nn2c(C34CC5CC(CC(C5)C3)C4)nnc2s1 | > 100 µM (inactive) | > 100 µM (inactive) | > 100 µM (inactive) | > 100 µM (inactive) | > 100 µM (inactive) | > 100 µM (inactive) | > 100 µM (inactive) | > 100 µM (inactive) | > 100 µM (inactive) | > 100 µM (inactive) | > 100 µM (inactive) | > 100 µM (inactive) | – | > 100 µM | > 100 µM (inactive) | > 100 µM (inactive) | > 100 µM (inactive) | > 100 µM (inactive) | > 100 µM (inactive)
14 | CC(=O)O[C@H]1C(=O)[C@@]2(C)[C@H]([C@H](OC(=O)c3cccc([N+](=O)[O-])c3)[C@]3(O)C[C@H](OC(=O)[C@H](O)[C@@H](NC(=O)c4ccccc4)c4ccccc4)C(C)=C1C3(C)C)[C@]1(OC(C)=O)CO[C@@H]1C[C@@H]2O | 0.00341 µM (active) | 0.022 µM (active) | 0.00285 µM (active) | 0.0043 µM (active) | 0.0153 µM (active) | 0.00322 µM (active) | 0.00257 µM (active) | 0.00703 µM (active) | 0.00474 µM (active) | 0.151 µM (active) | < 0.0025 µM (active) | 0.00762 µM (active) | 0.0495 µM (active) | 0.438 µM | 0.00912 µM (active) | 0.00447 µM (active) | – | 0.00509 µM (active) | 0.00681 µM (active)
15 | CCOC(=O)CCC(NC(=O)OCc1ccccc1)C(=O)NC(CCC(=O)OCC)C(=O)OCC (configuration not stated) (Cbz-Glu(OEt)-Glu(OEt)-OEt; configuration not given here) | > 100 µM (inactive) | > 100 µM (inactive) | > 100 µM (inactive) | > 100 µM (inactive) | > 100 µM (inactive) | > 100 µM (inactive) | > 100 µM (inactive) | > 100 µM (inactive) | > 100 µM (inactive) | > 100 µM (inactive) | > 100 µM (inactive) | > 100 µM (inactive) | – | > 100 µM | > 100 µM (inactive) | > 100 µM (inactive) | > 100 µM (inactive) | > 100 µM (inactive) | > 100 µM (inactive)
